Laboratory results taken from patent US11761966B2, “Nourin gene-based RNA molecular network: novel early diagnostic and prognostic biomarkers for coronary artery disease, unstable angina, STEMI/NSTEMI and heart failure” (Nour Heart, Inc., priority 2018, dated 2023).
“Also recorded” adds a separate entry of the source. Where no end group is shown, it is not given here. The star is where a group is joined. For = O=C*

How the values were obtained:
rabbit skin = conditions: within the first 30 minutes, neutrophil infiltration; cited from earlier work
miR-137 [1] = assay: qPCR of Nourin RNA network in ISO rat model of HF: serum miR-137 gene expression; assay type: in vivo; conditions: for reduction of miR-137 gene expression: serum day 14, vs ISO/saline
Method: (§1) The standard quantitative real time PCR (qPCR) molecular assay described in Example 6 was used to determine the levels of Nourin RNA network in the ISO rat model of ischemia-induced HF. It was tested if the hypothesis that the levels of gene expression of Nourin molecular RNA Network (miR-137, miRNA-106b, mRNA FTHL-17, mRNA ANAPC11 and lncR-CTB89H12.4) will be elevated in HF rats, and that CCrP treatment will reduce their gene expression of Nourin molecular RNA Network in a dose-response manner.
(§2) After 14 days, gene expression of Nourin-dependent miR-137 and miR-106b and their signaling pathways mRNA-FTLH-17, mRNA-ANAPC11 and lncR-CTB89H12.4 were evaluated by qRT-PCR (Example 6).

mRNA-FTHL-17 = assay: qPCR of Nourin RNA network in ISO rat model of HF: serum mRNA-FTHL-17 gene expression; assay type: in vivo; conditions: for reduction of mRNA-FTHL-17 gene expression: serum day 14
Method: as §1, §2

lncR-CTB89H12.4 = assay: qPCR of Nourin RNA network in ISO rat model of HF: serum lncR-CTB89H12.4 gene expression; assay type: in vivo; conditions: for increase of lncR-CTB89H12.4 gene expression: serum day 14
Method: as §1, §2

miR-106b = assay: qPCR of Nourin RNA network in ISO rat model of HF: serum miR-106b gene expression; assay type: in vivo; conditions: for reduction of miR-106b gene expression: serum day 14
Method: as §1, §2

mRNA-ANAPC11 = assay: qPCR of Nourin RNA network in ISO rat model of HF: serum mRNA-ANAPC11 gene expression; assay type: in vivo; conditions: for reduction of mRNA-ANAPC11 gene expression: serum day 14
Method: as §1, §2

ISO rat model of HF = assay: Standard isoproterenol (ISO) rat model of heart failure: CK-MB, ejection fraction, collagen, fibrosis, heart weight, physical activity; assay type: in vivo; design: heart weight: unit not given here; conditions: for Ejection Fraction (EF %) by ECHO: after 14 days
hearts in cold storage = assay: Heart cold storage for 6 hours in HH solution (UW+CCrP) vs UW
Method: (§3) Furthermore, there was a higher weight gain in control hearts (UW) after 6 hours of cold storage compared to the CCrP-treated hearts (HH). […] The observed reduction of heart edema in the CCrP hearts (HH) is crucial for the restoration of contractile function during reperfusion at the end of 6-hour storage. […] Lewis rats were used for both the donors and recipients to avoid immunologic rejection. This approach allowed a focus at determining the in vivo cardioprotective benefits of CCrP treatment and to evaluate whether CCrP would restore cardiac contractility after prolonged cold storage and increase graft survival. Echocardiography (ECHO) analyses were conducted 2 hours after transplantation at day 0 and at day 3 before sacrifice.

rat grafted hearts = assay: In vivo rat syngeneic abdominal heterotopic heart transplantation after 22-24 hours cold storage; conditions: after 22 and 24 hours of cold storage; control poor
Method: as §3
Saline-treated control donor rats were evidently dilated with an increase in the sizes of both ventricles and atria. Additionally, the color was mildly cyanotic and the contractility was poor and irregular in rhythm. In most control grafted hearts, their heart beating score ranged from 1+ to 2+ at day 0 and day 3. Protection was shown in most of CCrP grafted hearts at day 3 where the myocardial color and the consistency of the degree of contractility were almost the same as day zero. […] Most the control grafted hearts, on the other hand, continued to show evidence of ischemia as well as loss of wall thickness and cardiac mass by day 0 and day 3 (FIG. 43).

[2] = Crossing of the blood-brain barrier
Swine Flu H1N1 virus = conditions: mice inoculated with Swine Flu H1N1 virus; cited from earlier work
Nourin = conditions: in-vitro; cited from earlier work
miR-137 [3] = conditions: spontaneously hypertensive rats; cited from earlier work
[4] = tested on: patients with ST-Segment Elevation Myocardial Infarction; conditions: EMBRACE STEMI trial; cited from earlier work
HF patients = conditions: small study, wide confidence intervals; cited from earlier work

Method for healthy rats: After 14 days, ECHO analysis for Ejection Fraction (EF %) was conducted, as well as heart weight (mg), histologic analysis for fibrosis and deposition of collagen. Mean±S.E.M and one-way ANOVA analysis were used.

## Nourin: 3 KDa N-formyl peptide released by ischemic heart, inflammatory mediator (SEQ ID NO:15) (For-MIINHNLAAINSHRSPGADGNGGEAMPGGGR; listed as Homo sapiens)
Rabbit skin
  inflammatory response in skin: acute inflammatory response

## Cyclocreatine Phosphate [CCrP]
miR-137 [1]; ISO/CCrP 0.4 g/kg
  reduction of miR-137 gene expression: 33%
miR-137 [1]; ISO/CCrP 0.8 g/kg
  reduction of miR-137 gene expression: 75%
miR-137 [1]; ISO/CCrP 1.2 g/kg
  reduction of miR-137 gene expression: 68%
miR-137 [1]; healthy rats, CCrP 0.8 g/kg, saline-treated healthy rats 1.15
  miR-137 gene expression (Mean): 1.60
mRNA-FTHL-17; ISO/CCrP 0.4 g/kg
  reduction of mRNA-FTHL-17 gene expression: 16%
mRNA-FTHL-17; ISO/CCrP 0.8 g/kg
  reduction of mRNA-FTHL-17 gene expression: 30%
mRNA-FTHL-17; ISO/CCrP 1.2 g/kg
  reduction of mRNA-FTHL-17 gene expression: 75%
mRNA-FTHL-17; healthy rats, CCrP 0.8 g/kg, saline-treated healthy rats 1.01
  mRNA-FTHL-17 gene expression (Mean): 0.67
lncR-CTB89H12.4; ISO/CCrP 0.4 g/kg
  increase of lncR-CTB89H12.4 gene expression: 1.33 fold
lncR-CTB89H12.4; ISO/CCrP 0.8 g/kg
  increase of lncR-CTB89H12.4 gene expression: 7.66 fold
lncR-CTB89H12.4; ISO/CCrP 1.2 g/kg
  increase of lncR-CTB89H12.4 gene expression: 14.33 fold
lncR-CTB89H12.4; healthy rats, CCrP 0.8 g/kg, saline-treated healthy rats 1.1
  lncR-CTB89H12.4 gene expression (Mean): 1.3
miR-106b; ISO/CCrP 0.4 g/kg
  reduction of miR-106b gene expression: 18%
miR-106b; ISO/CCrP 0.8 g/kg
  reduction of miR-106b gene expression: 44%
miR-106b; ISO/CCrP 1.2 g/kg
  reduction of miR-106b gene expression: 72%
miR-106b; healthy rats, CCrP 0.8 g/kg, saline-treated healthy rats 4.62
  miR-106b gene expression (Mean): 5.62
mRNA-ANAPC11; ISO/CCrP 0.4 g/kg
  reduction of mRNA-ANAPC11 gene expression: 18%
mRNA-ANAPC11; ISO/CCrP 0.8 g/kg
  reduction of mRNA-ANAPC11 gene expression: 31%
mRNA-ANAPC11; ISO/CCrP 1.2 g/kg
  reduction of mRNA-ANAPC11 gene expression: 70%
mRNA-ANAPC11; healthy rats, CCrP 0.8 g/kg, saline-treated healthy rats 1.0
  mRNA-ANAPC11 gene expression (Mean): 0.9
ISO rat model of HF; ISO/CCrP 0.4 g/kg
  Ejection Fraction (EF %) by ECHO: 54%
ISO rat model of HF; ISO/CCrP 0.4 g/kg, day 14
  collagen %: 3.3%
ISO rat model of HF; ISO/CCrP 0.4 g/kg, day 14, ISO 0.8 mg, normal saline 0.6 mg
  heart weight: 0.7
ISO rat model of HF; ISO/CCrP 0.8 g/kg, 24 hours after last ISO injection, ISO 206.20±6.25, control saline 82.60±5.2
  Serum CK-MB: 70.67±5.79 U/L
ISO rat model of HF; ISO/CCrP 0.8 g/kg, day 14
  heart weight: 0.6
ISO rat model of HF; ISO/CCrP 0.8 g/kg/day, ISO 36, control saline 64
  Ejection Fraction (EF %) by ECHO: 64%
ISO rat model of HF; ISO/CCrP 0.8 g/kg/day, day 14
  myocardial fibrosis (Masson's trichrome): very low fibrosis; also recorded: delicate fibrous tissue between the myocardial bundles, almost similar to healthy normal rats
ISO rat model of HF; ISO/CCrP 0.8 g/kg/day, day 14, ISO/saline 4.1
  collagen %: 0.7%
ISO rat model of HF; ISO/CCrP 1.2 g/kg
  Ejection Fraction (EF %) by ECHO: 59%
ISO rat model of HF; ISO/CCrP 1.2 g/kg, day 14
  collagen %: 0.2%
  heart weight: 0.7
ISO rat model of HF; ISO/CCrP group (n=5), day 14 before sacrifice
  physical activity: high physical activity
Hearts in cold storage; 6 hours cold storage, HH solution (UW+CCrP), control (UW) 0.31 gm
  heart weight after cold storage: 0.25 gm
Hearts in cold storage; CCrP treated-group (HH) vs saline control
  recovery of contractile function: significantly better
Rat grafted hearts
  general overall survival of the cardiac tissue of grafted hearts: very good to excellent
[2]
  crossing of the blood-brain barrier: crosses blood brain barrier
Healthy rats; control healthy rats, CCrP 0.8 g/kg/day, day 14
  myocardial fibrosis (Masson's trichrome): no fibrosis
Healthy rats; healthy rats, CCrP 0.8 g/kg daily for 14 days
  toxicity in heart, liver and renal function: no toxicity; also recorded: no observed toxic effect
Healthy rats; normal rats, CCrP 0.8 g/kg IP daily for 14 days
  levels of liver enzyme ALT, kidney Creatinine and Urea, CCrP vs saline: no significant difference; also recorded: no significance difference
Healthy rats; normal rats, CCrP 0.8 g/kg daily for 14 days
  heart weight: 0.6
Healthy rats; normal rats, CCrP 0.8 g/kg daily for 14 days, control saline 0.1
  collagen %: 0.1%
Healthy rats; normal rats, CCrP 0.8 g/kg daily for 14 days, control saline 64
  Ejection Fraction (EF %) by ECHO: 61%

## C/C=C/C[C@@H](C)[C@@H](O)[C@H]1C(=O)N[C@@H](CC)C(=O)N(C)CC(=O)N(C)[C@@H](CC(C)C)C(=O)N[C@@H](C(C)C)C(=O)N(C)[C@@H](CC(C)C)C(=O)N[C@@H](C)C(=O)N[C@H](C)C(=O)N(C)[C@@H](CC(C)C)C(=O)N(C)[C@@H](CC(C)C)C(=O)N(C)[C@H](C(C)C)C(=O)N1C [Cyclosporin H]
Swine Flu H1N1 virus
  lung inflammation: significantly reduced lung inflammation
Nourin
  Nourin activity: inhibited Nourin activity

## C[C@H](CS)C(=O)N1CCC[C@H]1C(=O)O [captopril]
miR-137 [3]
  miR-137 expression: inhibit miR-137 expression

## elamipretide
[4]
  primary or secondary outcomes: did not improve the primary or secondary outcomes
HF patients
  left ventricular volumes: reduce left ventricular volumes
